Each structure is given as a SMILES string. Calls of active or inactive are those of the source. Bounds are passed on as bounds.

The target of assay [1] is T1, Tyrosine-protein phosphatase non-receptor type 7 (Homo sapiens, UniProt P35236).
T1 sequence (P35236 whole entry): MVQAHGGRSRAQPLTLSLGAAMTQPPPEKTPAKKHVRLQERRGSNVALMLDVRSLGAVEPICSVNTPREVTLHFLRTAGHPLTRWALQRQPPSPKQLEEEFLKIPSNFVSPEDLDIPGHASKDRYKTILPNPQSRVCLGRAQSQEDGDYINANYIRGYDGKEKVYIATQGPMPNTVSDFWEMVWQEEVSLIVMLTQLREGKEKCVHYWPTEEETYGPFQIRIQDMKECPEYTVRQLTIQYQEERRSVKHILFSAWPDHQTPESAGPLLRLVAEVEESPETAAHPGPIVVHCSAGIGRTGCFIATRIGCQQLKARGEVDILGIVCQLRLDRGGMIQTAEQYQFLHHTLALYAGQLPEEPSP
The assay is classed as functional.

Assay [2] has as its target Glyceraldehyde-3-phosphate dehydrogenase (Homo sapiens, UniProt P04406).
For assay [3], the target named is T2, Dual specificity protein phosphatase 6 (Rattus norvegicus, UniProt Q64346).
Assay [4] concerns the target T2, Dual specificity protein phosphatase 6. The assay is classed as functional.
A short description of assay [5]: decrease of insulin promoter-GFP reporter – imaging, high-content screening, mouse beta cells (AID 1628). The assay is classed as functional. The settings on record: MIN6.
Assay [6] can be described thus: MIN6 cell viability loss – mouse insulinoma, cytotoxicity control, dose response (AID 2122).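 Also: confirmatory high-throughput counterscreen run to flag cytotoxic compounds.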 The assay is classed as functional.
Assay [7] is described as follows: Trypanosoma cruzi growth suppression in host cells – NIH3T3 host cells, beta-gal luminescence, confirmation (AID 2044).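 Also: intracellular parasites grown in NIH/3T3 mouse fibroblasts as host cells; luminescent beta-galactosidase reporter signal from transgenic T. cruzi replicating inside host cells; inhibitors lower the luminescence signal.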 The assay is classed as functional, cell-based.
Assay [8] is described as follows: NIH3T3 cell viability loss – ATP luminescence, mouse fibroblasts, counter-screen, dose response (AID 2010).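 Also: cells exposed to compound for about 90 hours before reading.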 Format: functional, cell-based. For orientation: The purpose of a counterscreen is to sort out artefacts and off-target activity.
The nature of assay [9]: Luminescence Cell-Based Dose Retest to Confirm Inhibitors of Cancer Stem Cells. [Related pubchem assays (depositor defined):AID2717, AID2721]. Format: functional. The conditions noted are these: Homo sapiens.
Assay [10] can be described thus: viability loss of HMLE_sh_eGFP cells – cell-based, luminescence, counter-screen for HMLE_sh_ECad selective toxicity project, dose response (AID 463074).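 Also: HMLE human mammary epithelial cells expressing control shRNA against eGFP.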 The assay is classed as functional, Homo sapiens.
Assay [11] has as its target Dual specificity tyrosine-phosphorylation-regulated kinase 1A (Rattus norvegicus, UniProt Q63470). Format: biochemical, Homo sapiens.
In assay [12] the test system is Escherichia coli. Kind of assay: microbe, parasite or virus in culture.
Assay [13] concerns the target ORF 73 (Human herpesvirus 8, UniProt O40947). Kind of assay: KSHV LANA DNA-binding disruption – biochemical, fluorescence polarization, cherry-picked samples, dose response (AID 504725).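 Also: fluorescence polarization of a labeled DNA duplex reporting LANA DNA binding; potency is for inhibitors that block LANA binding to the DNA.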 Further details: species or system Human gammaherpesvirus 8.
The target of assay [14] is Keap1/Nrf2 (Homo sapiens, UniProt Q14145). As to the kind of experiment: disruptors of Keap1 binding to Nrf2 peptide – biochemical, fluorescence polarization, cherry-picked samples, dose response (AID 588683). On the technique in general: In fluorescence polarisation assays a small probe gives low polarisation when free and higher when bound to something large.
Assay [15] deals with HEK293. Kind of assay: cells. The conditions noted are these: Homo sapiens.
Assay [16] has as its system HEK293. As to the kind of experiment: cells. The settings on record: Homo sapiens. This is another data set of the same source.
Assay [17] is described as follows: THP-1 cell cytotoxicity, dose response, cytotoxicity control for non-replicating M. tuberculosis project (AID 489025). Format: functional.
Assay [18] can be described thus: HepG2 cell cytotoxicity, dose response, cytotoxicity control for non-replicating M. tuberculosis project (AID 489018). The conditions noted are these: Mycobacterium tuberculosis. The assay is classed as functional.
Assay [19] is described as follows: NIH/3T3 cell viability loss – mouse embryonic fibroblasts, dry powder, set 2, cytotoxicity control, dose response (AID 493247). The settings on record: Fibroblast. The assay is classed as functional, cell-based.
Assay [20] has as its system Trypanosoma cruzi. As to the kind of experiment: anti-trypanosomal activity in host cells – cell-based, plate reader, dry powder, set 3, dose response (AID 493197). Format: functional.
Assay [21] can be described thus: Vero E6 cell cytotoxicity, dose response, cytotoxicity control for non-replicating M. tuberculosis project, secondary assay (AID 492998). The conditions noted are these: Vero C1008. The assay is classed as functional, VeroE6.
Assay [22] deals with T3, Microphthalmia-associated transcription factor (Homo sapiens, UniProt O75030).
T3 sequence (O75030 whole entry): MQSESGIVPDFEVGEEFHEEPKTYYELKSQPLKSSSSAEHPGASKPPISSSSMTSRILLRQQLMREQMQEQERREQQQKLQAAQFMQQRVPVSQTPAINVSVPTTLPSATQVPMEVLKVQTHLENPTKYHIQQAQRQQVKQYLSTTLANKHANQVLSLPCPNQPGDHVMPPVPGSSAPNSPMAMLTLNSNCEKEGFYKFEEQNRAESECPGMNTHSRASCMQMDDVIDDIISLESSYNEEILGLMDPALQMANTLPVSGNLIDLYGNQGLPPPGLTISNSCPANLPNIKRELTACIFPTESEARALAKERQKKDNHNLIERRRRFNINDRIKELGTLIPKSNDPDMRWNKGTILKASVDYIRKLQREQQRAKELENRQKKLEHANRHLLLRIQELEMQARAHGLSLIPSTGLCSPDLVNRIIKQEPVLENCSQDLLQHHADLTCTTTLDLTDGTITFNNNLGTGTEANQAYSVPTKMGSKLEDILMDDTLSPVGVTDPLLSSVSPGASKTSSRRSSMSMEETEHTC
Kind of assay: reducers of TRPM1 reporter luminescence, concentration series – cell-based, SK-MEL-5, cherry-picked, set 3, MITF inhibitor project, dose response (AID 493073).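 Also: SK-MEL-5 melanoma cells with luciferase driven by the MITF target TRPM1 promoter.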 The assay is classed as functional.

Assay [23] is described as follows: cells. The assay is classed as functional.
Assay [24] in a line: T. cruzi infection blockers in NIH3T3 cells – beta-gal luminescence, NIH3T3 host cells, confirmation (AID 2630). Format: functional, cell-based. The conditions noted are these: Mus musculus.
Assay [25] concerns A-375. Kind of assay: MITF: Counter assay: A375 proliferation Measured in Cell-Based System Using Plate Reader - 2084-03_Inhibitor_Dose_DryPowder_Activity. [Related pubchem assays (depositor defined):AID488944]. The conditions noted are these: Homo sapiens. The assay is classed as functional.
Assay [26] can be described thus: cells.
A short description of assay [27]: CCR5-tropic HIV-1 fusion blockers – cell-based, CCR5-tropic Env, dose response (AID 2279). Format: functional.
Assay [28] deals with T4, Apoptotic protease-activating factor 1 (Homo sapiens, UniProt O14727).
T4 sequence (O14727 whole entry): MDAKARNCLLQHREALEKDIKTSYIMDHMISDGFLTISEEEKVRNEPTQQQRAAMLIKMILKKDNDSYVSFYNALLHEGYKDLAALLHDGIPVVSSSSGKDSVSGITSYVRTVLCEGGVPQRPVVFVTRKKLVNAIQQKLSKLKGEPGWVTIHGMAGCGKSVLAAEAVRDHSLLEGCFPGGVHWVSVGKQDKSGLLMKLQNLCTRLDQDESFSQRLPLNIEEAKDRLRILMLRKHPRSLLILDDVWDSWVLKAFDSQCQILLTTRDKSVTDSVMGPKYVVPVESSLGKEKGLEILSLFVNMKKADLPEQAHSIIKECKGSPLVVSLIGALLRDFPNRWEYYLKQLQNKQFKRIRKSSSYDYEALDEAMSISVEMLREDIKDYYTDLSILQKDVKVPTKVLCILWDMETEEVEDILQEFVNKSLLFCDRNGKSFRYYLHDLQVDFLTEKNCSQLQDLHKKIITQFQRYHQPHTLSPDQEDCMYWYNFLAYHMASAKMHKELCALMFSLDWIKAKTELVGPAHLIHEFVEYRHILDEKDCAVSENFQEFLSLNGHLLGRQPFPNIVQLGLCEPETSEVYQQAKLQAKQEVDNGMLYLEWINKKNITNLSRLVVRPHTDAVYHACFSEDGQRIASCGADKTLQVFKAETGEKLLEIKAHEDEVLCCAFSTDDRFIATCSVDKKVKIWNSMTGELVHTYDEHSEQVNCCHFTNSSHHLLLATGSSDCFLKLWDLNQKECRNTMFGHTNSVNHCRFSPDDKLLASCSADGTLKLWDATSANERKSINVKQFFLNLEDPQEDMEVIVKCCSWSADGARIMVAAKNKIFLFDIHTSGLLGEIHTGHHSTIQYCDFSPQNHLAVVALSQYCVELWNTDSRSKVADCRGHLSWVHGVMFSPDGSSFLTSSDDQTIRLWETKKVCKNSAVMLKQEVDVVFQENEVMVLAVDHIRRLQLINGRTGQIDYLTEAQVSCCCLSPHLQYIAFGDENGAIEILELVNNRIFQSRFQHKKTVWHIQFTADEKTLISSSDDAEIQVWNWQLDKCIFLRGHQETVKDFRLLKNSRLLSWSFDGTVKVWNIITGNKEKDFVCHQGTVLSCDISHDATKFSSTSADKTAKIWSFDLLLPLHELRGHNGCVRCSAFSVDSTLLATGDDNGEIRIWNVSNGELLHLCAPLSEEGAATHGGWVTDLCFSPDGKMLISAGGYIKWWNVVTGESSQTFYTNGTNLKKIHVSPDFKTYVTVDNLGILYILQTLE
Kind of assay: activation of Apaf-1 mediated apoptosis – fluorescent, uHTS hits, dose response (AID 588554). The assay is classed as functional.

In assay [29] the target is T5, Calpain-2 catalytic subunit (Sus scrofa, UniProt P43367).
T5 sequence (P43367 whole entry): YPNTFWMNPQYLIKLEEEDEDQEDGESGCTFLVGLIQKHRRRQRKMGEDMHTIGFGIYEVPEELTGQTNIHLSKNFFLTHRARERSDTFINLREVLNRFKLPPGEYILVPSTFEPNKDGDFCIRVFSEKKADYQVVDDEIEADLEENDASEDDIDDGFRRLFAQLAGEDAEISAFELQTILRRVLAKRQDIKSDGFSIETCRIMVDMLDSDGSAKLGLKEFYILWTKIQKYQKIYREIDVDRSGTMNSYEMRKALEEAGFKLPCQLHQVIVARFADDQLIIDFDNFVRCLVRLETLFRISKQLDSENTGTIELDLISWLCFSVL
As to the kind of experiment: m-calpain protease blockers, concentration series – biochemical, fluorogenic peptide substrate, dose response (AID 1420). Format: functional.

Assay [30] deals with Luciferin 4-monooxygenase (Photuris pensylvanica, UniProt Q27757). Kind of assay: inhibition of Cell Titer Glo luciferase signal – biochemical, luminescence, cherry-picks, counter-screen for HSF-1 reporter inhibitor project, dose response (AID 588847). On the technique in general: Cellular ATP, detected with luciferase, serves as a proxy for viable cell number.
Luciferin 4-monooxygenase, sequence (Q27757 whole entry): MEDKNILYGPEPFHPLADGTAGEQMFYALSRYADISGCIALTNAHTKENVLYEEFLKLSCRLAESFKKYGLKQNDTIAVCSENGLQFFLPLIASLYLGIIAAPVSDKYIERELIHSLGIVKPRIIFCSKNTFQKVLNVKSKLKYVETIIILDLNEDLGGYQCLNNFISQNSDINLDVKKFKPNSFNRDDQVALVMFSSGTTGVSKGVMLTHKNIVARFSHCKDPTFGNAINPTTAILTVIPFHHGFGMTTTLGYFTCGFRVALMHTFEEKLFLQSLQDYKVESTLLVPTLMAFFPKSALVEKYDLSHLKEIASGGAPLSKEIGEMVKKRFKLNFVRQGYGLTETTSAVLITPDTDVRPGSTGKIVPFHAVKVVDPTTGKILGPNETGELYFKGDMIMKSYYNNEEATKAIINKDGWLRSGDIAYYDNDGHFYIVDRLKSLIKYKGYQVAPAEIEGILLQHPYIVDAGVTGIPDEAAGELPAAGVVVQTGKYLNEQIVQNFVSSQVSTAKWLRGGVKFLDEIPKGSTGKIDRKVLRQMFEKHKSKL

T2 sequence (Q64346 whole entry): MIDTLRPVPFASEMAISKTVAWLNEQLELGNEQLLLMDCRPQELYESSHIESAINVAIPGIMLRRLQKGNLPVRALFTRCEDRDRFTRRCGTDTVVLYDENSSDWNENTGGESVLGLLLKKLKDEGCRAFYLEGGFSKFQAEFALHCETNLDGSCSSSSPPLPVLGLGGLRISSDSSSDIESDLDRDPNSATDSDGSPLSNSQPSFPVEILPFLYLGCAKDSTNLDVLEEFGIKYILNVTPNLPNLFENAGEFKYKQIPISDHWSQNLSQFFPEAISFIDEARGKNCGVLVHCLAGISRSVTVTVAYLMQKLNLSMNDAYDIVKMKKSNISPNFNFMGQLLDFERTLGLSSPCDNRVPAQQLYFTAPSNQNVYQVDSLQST
Keap1/Nrf2, sequence (Q16236 whole entry): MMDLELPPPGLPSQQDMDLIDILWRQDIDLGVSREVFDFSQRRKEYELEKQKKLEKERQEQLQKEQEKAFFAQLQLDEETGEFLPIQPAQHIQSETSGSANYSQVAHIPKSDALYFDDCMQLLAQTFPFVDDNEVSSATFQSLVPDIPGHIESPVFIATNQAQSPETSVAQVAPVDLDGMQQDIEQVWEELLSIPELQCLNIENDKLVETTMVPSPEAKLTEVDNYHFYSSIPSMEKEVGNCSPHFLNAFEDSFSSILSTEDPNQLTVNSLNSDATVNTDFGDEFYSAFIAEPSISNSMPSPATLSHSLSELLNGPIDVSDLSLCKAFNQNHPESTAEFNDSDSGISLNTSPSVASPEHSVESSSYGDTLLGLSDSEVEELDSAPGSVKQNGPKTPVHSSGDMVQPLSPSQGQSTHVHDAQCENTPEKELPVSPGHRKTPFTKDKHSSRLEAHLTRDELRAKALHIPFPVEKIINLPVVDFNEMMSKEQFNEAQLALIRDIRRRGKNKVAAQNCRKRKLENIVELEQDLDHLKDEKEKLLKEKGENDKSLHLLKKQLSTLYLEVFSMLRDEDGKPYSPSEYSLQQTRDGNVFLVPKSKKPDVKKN
Keap1/Nrf2, sequence (Q14145 whole entry): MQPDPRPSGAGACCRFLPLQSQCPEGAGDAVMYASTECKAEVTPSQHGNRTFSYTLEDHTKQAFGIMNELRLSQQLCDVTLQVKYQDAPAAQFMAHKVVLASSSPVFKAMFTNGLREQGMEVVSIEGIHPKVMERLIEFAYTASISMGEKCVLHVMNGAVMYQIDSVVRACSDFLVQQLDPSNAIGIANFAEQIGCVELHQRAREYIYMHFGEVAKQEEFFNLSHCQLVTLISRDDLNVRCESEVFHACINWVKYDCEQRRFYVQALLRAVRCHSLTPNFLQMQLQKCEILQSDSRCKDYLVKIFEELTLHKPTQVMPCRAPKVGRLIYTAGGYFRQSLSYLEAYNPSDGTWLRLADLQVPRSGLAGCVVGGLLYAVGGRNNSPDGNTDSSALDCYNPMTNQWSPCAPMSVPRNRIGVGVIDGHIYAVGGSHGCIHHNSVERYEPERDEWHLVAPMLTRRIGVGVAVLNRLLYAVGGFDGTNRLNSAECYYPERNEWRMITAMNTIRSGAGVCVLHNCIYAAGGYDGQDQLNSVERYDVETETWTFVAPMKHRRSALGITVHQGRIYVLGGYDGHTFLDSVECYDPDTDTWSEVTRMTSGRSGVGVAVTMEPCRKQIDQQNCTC
Glyceraldehyde-3-phosphate dehydrogenase, sequence (P04406 whole entry): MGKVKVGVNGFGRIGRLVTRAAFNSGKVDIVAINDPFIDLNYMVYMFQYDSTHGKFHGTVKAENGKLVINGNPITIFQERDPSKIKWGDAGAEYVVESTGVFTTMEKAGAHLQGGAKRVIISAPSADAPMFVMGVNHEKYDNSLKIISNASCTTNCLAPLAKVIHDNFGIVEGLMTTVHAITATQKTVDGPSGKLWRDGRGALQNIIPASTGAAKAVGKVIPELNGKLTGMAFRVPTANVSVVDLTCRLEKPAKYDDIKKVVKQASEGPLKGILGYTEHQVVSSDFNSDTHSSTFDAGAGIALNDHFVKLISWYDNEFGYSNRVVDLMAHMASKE
ORF 73, sequence (O40947 whole entry): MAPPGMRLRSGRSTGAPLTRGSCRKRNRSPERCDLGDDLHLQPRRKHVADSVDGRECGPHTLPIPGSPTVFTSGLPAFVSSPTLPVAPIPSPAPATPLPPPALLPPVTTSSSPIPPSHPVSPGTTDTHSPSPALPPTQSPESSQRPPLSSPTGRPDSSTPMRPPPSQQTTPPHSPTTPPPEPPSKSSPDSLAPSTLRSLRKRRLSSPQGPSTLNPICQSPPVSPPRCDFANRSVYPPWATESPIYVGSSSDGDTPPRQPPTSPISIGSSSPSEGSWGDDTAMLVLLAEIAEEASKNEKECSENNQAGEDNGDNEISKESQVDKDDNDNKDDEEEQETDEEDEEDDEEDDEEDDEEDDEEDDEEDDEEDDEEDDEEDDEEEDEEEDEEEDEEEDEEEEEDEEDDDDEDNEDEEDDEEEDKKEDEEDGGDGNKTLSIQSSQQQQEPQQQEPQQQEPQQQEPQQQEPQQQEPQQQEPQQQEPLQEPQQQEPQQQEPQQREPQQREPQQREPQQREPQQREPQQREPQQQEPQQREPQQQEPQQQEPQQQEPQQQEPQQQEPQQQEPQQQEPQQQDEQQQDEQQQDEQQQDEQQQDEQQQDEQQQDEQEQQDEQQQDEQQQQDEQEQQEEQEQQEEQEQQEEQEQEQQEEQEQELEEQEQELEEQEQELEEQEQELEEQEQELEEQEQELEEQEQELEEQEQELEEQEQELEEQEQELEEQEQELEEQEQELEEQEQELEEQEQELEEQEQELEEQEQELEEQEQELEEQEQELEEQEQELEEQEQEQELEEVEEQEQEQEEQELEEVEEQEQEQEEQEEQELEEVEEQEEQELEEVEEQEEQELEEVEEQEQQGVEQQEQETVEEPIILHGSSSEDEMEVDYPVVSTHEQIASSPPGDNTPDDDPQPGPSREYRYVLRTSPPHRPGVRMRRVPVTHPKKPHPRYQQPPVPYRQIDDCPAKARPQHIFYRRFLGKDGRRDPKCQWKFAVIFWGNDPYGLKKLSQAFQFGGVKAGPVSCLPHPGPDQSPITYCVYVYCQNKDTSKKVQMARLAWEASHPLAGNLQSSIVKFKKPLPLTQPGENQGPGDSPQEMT

As to `CCCCCCCCC#CC#CCCCC(=O)O`, the IC50 in assay [1] is 96.2 µM (not active); in assay [2], > 100 µM (not active); in [3], > 100 µM (inactive); in assay [4], > 100 µM (inactive).

For `CN1/C(=C\C(=O)COc2ccc3c(c2)OCO3)C(C)(C)c2ccccc21`, the IC50 in assay [5] was 1.48 µM (active); in assay [6], 0.768 µM (active). Further, the EC50 in assay [7] is 2.75 µM (active); in assay [8], > 60 µM (not active). Besides, the AC50 in [9] was 4.1 µM (active); in [10], 23.4 µM (active).

Consider `COc1ccc2cc3cc(C(=O)NCCN4CCN(Cc5ccccc5)CC4)oc3nc2c1`, for which, in [11], the AC50 was 1.51 µM (active).

`CCOc1ccc(S(=O)(=O)Nc2cc(Cl)ccc2O)cc1`: the AC50 in [12] was 53.7 µM (active).

For the compound `CCc1ccc[n+](-c2[n-]c(=O)sc2C=NNC(=S)Nc2ccccc2)c1`, the AC50 in assay [13] is 10.1 µM (active); in assay [14], 13.6 µM (active).

On to `O=C(NC12CC3CC(CC(C3)C1)C2)N(Cc1ccccc1)Cc1ccncc1`, for which the EC50 in assay [15] and in [16] was > 59.6 µM (inactive) in each case.

In the case of `O=C(CNc1cccc([N+](=O)[O-])c1)N/N=C/c1ccc([N+](=O)[O-])o1`, the EC50 is < 0.1 µM (active) in [7], > 60 µM (not active) in assay [8], 0.0205 µM (active) in [24] and 0.055 µM (active) in assay [26]. For the same compound, the values for the CC50 in assay [17], in assay [18] and in [21] were 14.1 µM (active), 10.1 µM (active) and 11.6 µM (active), respectively. The AC50 in [19] was 35.6 µM (active); in assay [20] it was 0.061 µM (active); in assay [22], 8.63 µM (active); in [25], 41.8 µM (active). Also, the IC50 in assay [23] is 5.42 µM (active).

As for `O=C(N/N=C/c1cc(Cl)cc([N+](=O)[O-])c1O)NC12CC3CC(CC(C3)C1)C2`, the IC50 in [27] was 40 µM (active). Besides, the AC50 in assay [9] was 5.03 µM (active). Also, the EC50 in assay [28] is 6.87 µM (active).

For the compound `Cc1nn(-c2cccc(C(F)(F)F)c2)c(Cl)c1/C=N/Nc1cccc(C(=O)O)c1`, the IC50 in assay [29] was 11.4 µM (not active). Moreover, the AC50 in assay [30] was > 52 µM (inactive).

In general, IC50 refers to the concentration that inhibits the measured activity by half. In general, EC50 refers to the concentration giving half of the maximal effect. By AC50 is commonly meant the concentration at which the activity in the assay is half-maximal. As a reminder, the CC50 is the concentration at which the toxic effect on the cells reaches its halfway point.

Source of the values: ChEMBL document CHEMBL1201862, “PubChem BioAssay data set” (2004).
